Test results: patent publication EP1332762A1, “Method of treating hyperprolactinemia and prolactinomas” (Cedars-Sinai Medical Center, priority 1997, dated 1998)
Positions of bridges follow the written chain, without caps; N, C: chain ends. Non-standard residues stand in square brackets, D forms with d. Residues, ends and D or L forms follow the SMILES beside them.

Tests used:
[1] = test system: Cells derived from six prolactin-secreting pituitary adenomas; assay: Reduction of prolactin secretion from cultured prolactinoma cells (PRL by immunoradiometric assay); type: cell-based, human; conditions: for effect on prolactin release: adenomatous cell cultures of tumor 1; for effect on prolactin release / suppressed prolactin release: 10-100 nM; for effect on prolactin release / suppressed prolactin secretion / suppressed prolactin release: 3 hours; for effect on prolactin release / response of prolactin secretion / effect on prolactin production: result in words; for response of prolactin secretion: cells of the four large male tumors (tumors 1-4); for effect on prolactin production / suppressed prolactin release: large tumor 4 cell cultures; for suppressed prolactin secretion: cell cultures from tumor 1
hSSTR-2 = hSSTR-2 (Homo sapiens, UniProt P30874); assay: Somatostatin receptor binding assay ([125I-Tyr11]somatostatin-14, membranes of transfected CHO-K1 cells); conditions: radioligand 0.05 nM, 30 min at 30 °C
Chain of hSSTR-2 (P30874 whole entry): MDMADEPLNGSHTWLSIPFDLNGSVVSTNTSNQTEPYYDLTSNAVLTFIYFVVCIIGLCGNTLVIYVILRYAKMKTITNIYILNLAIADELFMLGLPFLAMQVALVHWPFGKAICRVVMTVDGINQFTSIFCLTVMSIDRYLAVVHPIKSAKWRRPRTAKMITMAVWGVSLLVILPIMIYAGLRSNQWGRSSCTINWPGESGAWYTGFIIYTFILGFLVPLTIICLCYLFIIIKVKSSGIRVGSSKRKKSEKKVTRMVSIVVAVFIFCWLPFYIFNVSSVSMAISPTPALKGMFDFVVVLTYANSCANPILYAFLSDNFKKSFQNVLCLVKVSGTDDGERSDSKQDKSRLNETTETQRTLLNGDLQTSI

hSSTR-1 = hSSTR-1 (Homo sapiens, UniProt P30872); assay: as above; conditions: radioligand 0.05 nM, 30 min at 30 °C
Chain of hSSTR-1 (P30872 whole entry): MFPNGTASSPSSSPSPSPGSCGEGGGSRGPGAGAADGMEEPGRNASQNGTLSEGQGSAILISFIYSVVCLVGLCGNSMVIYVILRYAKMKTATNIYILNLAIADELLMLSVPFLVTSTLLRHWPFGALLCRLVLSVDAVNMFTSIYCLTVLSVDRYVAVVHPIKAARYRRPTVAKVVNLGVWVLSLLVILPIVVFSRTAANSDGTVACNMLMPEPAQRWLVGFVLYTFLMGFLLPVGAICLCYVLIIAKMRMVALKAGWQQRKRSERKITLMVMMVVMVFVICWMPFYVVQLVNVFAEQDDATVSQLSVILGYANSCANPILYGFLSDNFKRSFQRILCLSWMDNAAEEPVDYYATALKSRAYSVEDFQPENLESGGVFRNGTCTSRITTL

hSSTR-3 = hSSTR-3 (Homo sapiens, UniProt P32745); assay: as above; conditions: radioligand 0.05 nM, 30 min at 30 °C
Chain of hSSTR-3 (P32745 whole entry): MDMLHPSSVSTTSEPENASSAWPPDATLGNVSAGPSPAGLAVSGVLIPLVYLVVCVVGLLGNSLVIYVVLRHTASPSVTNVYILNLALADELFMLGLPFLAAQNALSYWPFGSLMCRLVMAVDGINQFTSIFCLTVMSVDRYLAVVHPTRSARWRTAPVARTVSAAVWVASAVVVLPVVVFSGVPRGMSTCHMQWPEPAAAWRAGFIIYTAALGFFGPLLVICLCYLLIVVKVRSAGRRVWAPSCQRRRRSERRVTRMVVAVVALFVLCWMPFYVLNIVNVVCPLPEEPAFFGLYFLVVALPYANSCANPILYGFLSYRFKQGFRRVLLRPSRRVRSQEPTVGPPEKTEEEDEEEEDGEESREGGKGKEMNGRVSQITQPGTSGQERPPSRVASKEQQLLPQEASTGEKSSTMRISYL

hSSTR-4 = hSSTR-4 (Homo sapiens, UniProt P31391); assay: as above; conditions: radioligand 0.05 nM, 30 min at 30 °C
Chain of hSSTR-4 (P31391 whole entry): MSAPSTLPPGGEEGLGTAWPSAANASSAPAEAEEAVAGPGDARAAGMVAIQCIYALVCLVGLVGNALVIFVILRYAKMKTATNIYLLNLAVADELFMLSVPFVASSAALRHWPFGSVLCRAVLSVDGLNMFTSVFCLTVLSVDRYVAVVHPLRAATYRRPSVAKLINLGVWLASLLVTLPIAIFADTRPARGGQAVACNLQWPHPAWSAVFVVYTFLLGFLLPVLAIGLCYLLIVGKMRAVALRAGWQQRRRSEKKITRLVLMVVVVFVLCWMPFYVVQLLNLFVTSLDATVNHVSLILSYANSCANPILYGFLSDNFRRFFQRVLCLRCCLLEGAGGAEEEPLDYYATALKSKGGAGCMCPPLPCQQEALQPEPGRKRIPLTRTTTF

hSSTR-5 = hSSTR-5 (Homo sapiens, UniProt P35346); assay: as above; conditions: radioligand 0.05 nM, 30 min at 30 °C
Chain of hSSTR-5 (P35346 whole entry): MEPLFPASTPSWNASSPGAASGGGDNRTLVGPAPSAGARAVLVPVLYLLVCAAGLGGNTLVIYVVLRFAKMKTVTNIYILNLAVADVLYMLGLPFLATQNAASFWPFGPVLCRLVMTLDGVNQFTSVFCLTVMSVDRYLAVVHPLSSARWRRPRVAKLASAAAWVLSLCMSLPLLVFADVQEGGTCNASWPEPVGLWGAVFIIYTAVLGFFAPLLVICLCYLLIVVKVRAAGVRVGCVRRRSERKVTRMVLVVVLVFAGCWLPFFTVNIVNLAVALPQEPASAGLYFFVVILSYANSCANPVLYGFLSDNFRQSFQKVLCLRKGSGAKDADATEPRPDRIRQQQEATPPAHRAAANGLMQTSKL

Structure (SMILES): CC[C@@H]1NC(=O)[C@H](CCCCN)NC(=O)[C@@H](Cc2c[nH]c3ccccc23)NC(=O)[C@H](Cc2ccc(O)cc2)NC(=O)[C@@H](NC(=O)[C@@H](Cc2ccccc2)NC(=O)CN2CCN(CCO)CC2)CSSC[C@@H](C(=O)N[C@H](C(N)=O)[C@@H](C)O)NC1=O [BIM-23190]
- effect on prolactin release [1]: did not affect prolactin release
- response of prolactin secretion [1]: failed to respond
- effect on prolactin production [1]: modestly stimulated prolactin production

Structure (SMILES): CC[C@@H]1NC(=O)[C@H](CCCCN)NC(=O)[C@@H](Cc2c[nH]c3ccccc23)NC(=O)[C@H](Cc2ccc(O)cc2)NC(=O)[C@@H](NC(=O)[C@H](N)Cc2ccccc2)CSSC[C@@H](C(=O)N[C@H](C(N)=O)[C@@H](C)O)NC1=O [BIM-23023]
- effect on prolactin release [1]: did not affect prolactin release

Structure (SMILES): CC(C)[C@@H]1NC(=O)[C@H](CCCCN)NC(=O)[C@@H](Cc2c[nH]c3ccccc23)NC(=O)[C@H](Cc2ccc(O)cc2)NC(=O)[C@@H](NC(=O)[C@H](N)Cc2ccc3ccccc3c2)CSSC[C@@H](C(=O)N[C@H](C(N)=O)[C@@H](C)O)NC1=O [Lanreotide]
- Ki (hSSTR-2): 0.75 nM
- effect on prolactin release [1]: did not affect prolactin release
- response of prolactin secretion [1]: failed to respond

Structure (SMILES): CC[C@@H]1NC(=O)[C@H](CCCCN)NC(=O)[C@@H](Cc2c[nH]c3ccccc23)NC(=O)[C@H](Cc2ccc(O)cc2)NC(=O)[C@@H](NC(=O)[C@@H](Cc2ccccc2)NS(=O)(=O)CCN2CCN(CCO)CC2)CSSC[C@@H](C(=O)N[C@H](C(N)=O)[C@@H](C)O)NC1=O [BIM-23197]
- effect on prolactin release [1]: did not affect prolactin release
- response of prolactin secretion [1]: failed to respond
- effect on prolactin production [1]: modestly stimulated prolactin production

Structure (SMILES): C[C@@H](O)[C@@H]1NC(=O)[C@H](CCCCN)NC(=O)[C@@H](Cc2c[nH]c3ccccc23)NC(=O)[C@H](Cc2ccccc2)NC(=O)[C@H](Cc2ccccc2)NC(=O)[C@@H](N)CSSC[C@@H](C(N)=O)NC(=O)[C@H](Cc2ccccc2)NC1=O [BIM-23268] (H-CFF[dW]KTFC-NH2; disulfide 1-8)
- suppressed prolactin secretion ([1]; 10 nM, p<0.05): 36%
- response of prolactin secretion [1]: suppression of prolactin secretion
- suppressed prolactin ([1]; large tumor 3 cell cultures, 10 nM and 100 nM, dose dependent, p<0.05): up to 29%
- suppressed prolactin release ([1]; p<0.05): more than 30%
- Prolactin release inhibited ([1]; tumor 2 cell cultures, 10 nM, versus controls, p<0.0005): 38%

Structure (SMILES): C[C@@H](O)[C@@H]1NC(=O)[C@H](CCCCN)NC(=O)[C@@H](Cc2c[nH]c3ccccc23)NC(=O)[C@H](Cc2ccccc2)NC(=O)[C@@H](NC(=O)[C@H](N)Cc2ccccc2)CSSC[C@@H](C(=O)N[C@H](CO)[C@@H](C)O)NC1=O [Octreotide]
- response of prolactin secretion [1]: failed to respond

Structure (SMILES): C[C@@H](O)[C@H](NC(=O)[C@H](Cc1ccccc1)NC(=O)[C@@H](NC(=O)[C@H](CCCCN)NC(=O)[C@@H](Cc1c[nH]c2ccccc12)NC(=O)[C@H](Cc1ccccc1)NC(=O)[C@H](Cc1ccccc1)NC(=O)[C@H](N)Cc1ccccc1)[C@@H](C)O)C(N)=O [BIM-23052, H-D-Phe-Phe-Phe-D-Trp-Lys-Thr-Phe-Thr-NH2] (H-[dF]FF[dW]KTFT-NH2)
- Ki (hSSTR-1): 97.6 nM
- Ki (hSSTR-2): 12 nM
- Ki (hSSTR-3): 5.6 nM
- Ki (hSSTR-4): 127 nM
- Ki (hSSTR-5): 1.22 nM
- suppressed prolactin secretion ([1]; 10 nM, p<0.05): 33%
- response of prolactin secretion [1]: suppression of prolactin secretion
- suppressed prolactin release ([1]; p<0.05): more than 30%
